Measurements: a melting point compilation (Tetko et al.; mined from patent text by program, amines drawn as free bases though some values may be those of a salt)

Compound `COC(=O)CCC(NC(=O)c1cn(C(c2ccccc2)(c2ccccc2)c2ccccc2)c(I)n1)C(=O)OC` (stereo not given) has a melting point of 86 to 88 °C.
For `O=C(C(=CO)c1ccccc1)c1ccccc1`, the melting point was 110 to 114 °C.
Work on `CCCN(c1ccncc1)n1cc(C)c2cc(OCc3ccccc3)ccc21` yielded a melting point of 165 to 167 °C.
With `CCOC(=O)C1=C(C#N)Nc2nccn2C1c1cccc([N+](=O)[O-])c1` (stereo not given) the melting point was 260 to 261 °C.
With `CC1CCc2ccc3ccccc3c2C1=O` (stereo not given) the melting point was 61 to 63 °C.
With `N#Cc1ccc(N2C(=O)NC3(CCCC3)C2=O)cc1C(F)(F)F` the melting point was 184 to 185 °C.
Work on `CC1=C(C(=O)OC(C)(C)C)C(c2cc(Cl)ccc2Cl)C(C(=O)OC(C)(C)C)=C(C)N1` yielded a melting point of 181 to 183 °C.
`O=C1Nc2ccc(Cl)cc2C12OCCCO2` showed a melting point of 184 to 185 °C.
`CC(=O)N1CCN(Cc2cnc(-c3cc4c(C)ccc(N(C)S(=O)(=O)c5cccs5)c4[nH]3)s2)CC1` showed a melting point of 171 to 172 °C.
In the case of `CN(Cc1ccc(NC(=O)C2=Cc3cc(-c4ccc(OC(F)(F)F)cc4)ccc3OCC2)cc1)C1CCOCC1`, the melting point is reported as 187 to 188 °C.
For `CS(=O)(=O)c1ccc(C2=NN(S(=O)(=O)c3ccc(I)cc3)CCC2)cc1`, the melting point was 198 to 204 °C.
Work on `COc1ccc(C(=O)N2CCC[C@H]2C(OC)OC)cc1` yielded a melting point of 51 to 52.5 °C.
In the case of `CC(C)c1cccc(C(C)C)c1NC(=O)CNC(c1ccccn1)c1ccccn1`, the melting point is reported as 134 to 135 °C.
In the case of `COc1cccc2c(N3CCN(C[C@H]4COc5ccc6nc(C)ccc6c5O4)CC3)coc12`, the melting point is reported as 56 °C.
`CCCN1C(=O)C(NC(=O)Nc2cccc(C)c2)N=C(N(C)C2CCCCC2)c2ccccc21` (single isomer, unassigned; (+)) showed a melting point of 126 to 127 °C.
Compound `CC(=O)C1CCC2C3CCC4CCCCC4(C)C3CCC12C` (stereo not given) has a melting point of 84 to 90 °C.
With `O=S(=O)(NCCN1CC(c2ccccc2)C(c2ccc(Cl)cc2)=N1)c1cccc(C(F)(F)F)c1` (stereo not given) the melting point was 94 to 96 °C.
In the case of `c1ccc2c(c1)ncc1ncsc12`, the melting point is reported as 114 to 116 °C.
Compound `Cc1ccc2c(c1)C=Cc1cc(C)ccc1C2c1cn(-c2cc(NCC(=O)Nc3nc(CC(=O)O)cs3)nc(N(C)C)n2)c(=O)[nH]c1=O` has a melting point of 220 °C.
`COc1ccc(CN(CCN(C)CCCCCCNC(=S)NCCSCc2csc(NC(=N)N)n2)c2ccccn2)cc1` showed a melting point of 78 °C.
With `CC(C)NC(=O)c1ccc(-c2cnc3[nH]c(=O)n(CC4CCCCC4)c3n2)cc1` the melting point was 264 to 268 °C.
Work on `CCOC(=O)C1=C(NC(C)=O)C(=O)O[C@@H]1C` yielded a melting point of 119 to 122 °C.
Work on `O=C(NC1(C(=O)O)Cc2ccc(Br)cc2C1)c1cn2cc(-c3ccc(Cl)cc3)ccc2n1` (stereo not given) yielded a melting point of 328 °C.
With `COc1cc(N2CCC(N3CCN(C)CC3)CC2)ccc1Nc1ncc2ccc(Br)n2n1` the melting point was 171 to 173 °C.
With `O=C(NC[C@H]1CN(c2cc(F)c(N3CCC(n4nccn4)CC3)c(F)c2)C(=O)O1)C(F)F` the melting point was 254 to 255 °C.
`Cc1ccc(C2COc3c(C)c(C)c(Br)c(C)c32)cc1` (stereo not given) gave a melting point of 108 to 109 °C.
`CCOC(=O)Cc1c(-c2ccccc2)c2cc(CO)c(CO)cc2oc1=O` showed a melting point of 130 to 131 °C.
In the case of `Cc1ccc(-c2cncc(OC3SCC(O)C(O)C3O)c2)o1` (stereo not given), the melting point is reported as 188 °C.
With `O=C(c1cccc([N+](=O)[O-])c1)n1nc(O)c2ccccc21` the melting point was 232 to 234 °C.
Work on `O=C(O)c1cc(F)c(F)cc1Nc1ccnn1-c1ccccn1` yielded a melting point of 242 to 245 °C.
`CC(=O)c1ncn(-c2ccccc2)n1` showed a melting point of 174 to 176 °C.
For `Cc1nc(O)c(Br)cc1Br`, the melting point was > 225 °C.
`CCNC(=O)n1nc(Oc2c(Cl)cc(C(F)(F)F)cc2Cl)cc1C(C)C` gave a melting point of 74 to 76 °C.
Compound `C[C@H]1C[C@@](O)(c2cnc(Cl)s2)CCO1` has a melting point of 40 to 42 °C.
`CC(C)(C)c1cn(N=Cc2cccnc2)c(=O)[nH]1` showed a melting point of 255 to 256 °C.
In the case of `O=C1CC2(C(=O)N1)C(=O)N(Cc1ccc(Cl)c(Cl)c1)c1ccccc12` (stereo not given), the melting point is reported as 205 to 207 °C.
For `O=C(O)c1cc(=O)c2cc(O)c(=O)ccc2[nH]1`, the melting point was 258 to 260 °C.
Work on `CN(C)CCn1c(-c2ccc(Cl)cc2)cc2c1CCSC2` yielded a melting point of 91.5 to 92.5 °C.
With `CCCNc1nc(N)cc(Cl)n1` the melting point was 92 to 94 °C.
`O=C(c1ccccc1)c1ccc(OC(=O)C2CC2)cc1` gave a melting point of 81 to 81.5 °C.
In the case of `CCCN1CC(CN2CC(=O)NC2=O)CC2c3cccc4[nH]cc(c34)CC21` (stereo not given), the melting point is reported as 168 to 170 °C.
For `C#CCNC(=O)C(C)(COc1ccc(OCC)cc1)NS(=O)(=O)Cc1ccccc1` (stereo not given), the melting point was 155 to 156 °C.
Work on `O=c1c2ccccc2oc2cccnc12` yielded a melting point of 184 to 185 °C.
`CC(=O)NC1CCN(Cc2ccccc2)C1C` (stereo not given) showed a melting point of 51 to 54 °C.
For `CCOc1nn(-c2ccccc2Cl)c(=O)o1`, the melting point was 45 °C.
With `CSc1ccc2c(c1)NC(=O)C2` the melting point was 179 to 180 °C.
Work on `COc1nc(OC)c2cc(CBr)ccc2n1` yielded a melting point of 138 to 143 °C.
Compound `CCNC(=O)N1CCCC(n2nnnc2-c2cc(-c3cc(C(C)C)ccc3OC)c(O)cc2O)C1` (stereo not given) has a melting point of 223 to 226 °C.
Compound `CCCCCCc1cc2c(s1)NC(=O)CN=C2c1ccc(OC)cc1` has a melting point of 123 to 125 °C.
With `CCOC(=O)C[C@H]1O[C@H](c2ccc(OCc3ccccc3)cc2OC)c2cc(Cl)ccc2N(CC(C)(C)C)C1=O` (relative stereo) the melting point was 130 to 131 °C.
`COc1ccnc(CCc2nc3cc(-c4ccc(OC)c(OC)c4)cnc3[nH]2)c1` showed a melting point of 185 to 186 °C.
Compound `O=[N+]([O-])C1(CNC(CO)(CO)CO)CCCCC1` has a melting point of 110 to 113 °C.
`Cc1cc(C(N)=O)ncc1C(c1c(F)ccc(F)c1F)S(=O)(=O)CCCO` (stereo not given) gave a melting point of 148 to 150 °C.
`COCCOc1cc2ncnc(Nc3ccc(C)c(OC(C)=O)c3)c2cc1OC` gave a melting point of 180 to 183 °C.
Work on `CC(=O)OC/C(=C(\C(=O)N(C)CC(C)(C)S)c1ccc(F)cc1)c1ccc(S(C)(=O)=O)cc1` yielded a melting point of 45 to 47 °C.
`Cc1cccn2c(C)c(-c3ccc4c(c3)NC(=O)C(C)O4)nc12` (stereo not given) gave a melting point of 249 to 250 °C.
Compound `CCOC(=O)c1cc(NCc2ccccc2)c(OCC(F)(F)F)c(S(N)(=O)=O)c1` has a melting point of 163 to 165 °C.
In the case of `CCCCc1cn(CC(C)C)c(=O)n1Cc1ccc(-c2ccccc2-c2nnn[nH]2)nc1`, the melting point is reported as 160 to 162 °C.
In the case of `CSc1ccc(-c2nc(S)[nH]c2-c2ccc(SC)cc2)cc1`, the melting point is reported as 280 °C.
For `CCc1cc2oc3cc(-c4ccccc4Cl)c4c(c3c2cc1O)C(=O)NC4=O`, the melting point was 265 to 268 °C.
`O=C(NC1CN2CCC1CC2)C(O)(c1cccs1)c1cccs1` (stereo not given) showed a melting point of 169 °C.
For `COCC(=O)OC1(C(=O)COC(=O)C(C)C)CCC2C3CC(C)C4=CC(=O)C=CC4(C)C3C(O)CC21C` (stereo not given), the melting point was 148 to 150 °C.
In the case of `CCOC(=O)C(Cc1ccc(CN(CC)CC)cc1)NC(=O)OC(C)(C)C` (stereo not given), the melting point is reported as 56 °C.
`COc1ccc(C(=C/C=C/C(=O)NCCCCCc2ccccn2)c2ccc(OC)cc2)cc1` showed a melting point of 99 to 100 °C.
In the case of `COc1ccc2c3c1OC1C(O)C(CO)(CO)CC4C(C2)N(C)CCC341` (stereo not given), the melting point is reported as > 265 °C.
In the case of `COCCNc1ccc2ncnc(Nc3ccc(F)cc3F)c2c1`, the melting point is reported as 175 to 176 °C.
With `CC(C)(C)C(=O)C=CC1C(C(=O)OC(C#N)c2cccc(Oc3ccccc3)c2)C1(C)C` (stereo not given) the melting point was 89 °C.
For `CCn1c(=O)ccc2cnc(S(C)=O)nc21` (stereo not given), the melting point was 202 to 203 °C.
`COc1ccc(Cl)cc1C(=O)NCCc1ccc(-c2ccc(OC(C)(C)C(=O)O)cc2)cc1` showed a melting point of 145 °C.
`CN(c1ccc(C(C(F)(F)Cl)C(F)(F)Cl)cc1)S(C)(=O)=O` gave a melting point of 140 to 142 °C.
